Experimental data reported in patent publication US20260285850A1, “SUBSTITUTED OXAZOLIDINONES AND IMIDAZOLINONES AS HERBICIDES” (FMC CORPORATION, priority 2023, published 2026).

How the values were obtained:
Assay type in all cases: in vivo
[1] = tested on: barnyardgrass (Echinochloa crus-galli); test: Test A preemergence soil spray, visual injury rating 0-100; details: 10 days
In short: (§1)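 Compound in a non-phytotoxic, surfactant-containing solvent is applied either as a directed soil spray before seedlings emerge or onto emerged plants 2-10 cm tall; pots hold a loam-sand blend. Plants grow 10 days under greenhouse conditions and are rated by eye against untreated controls (0 no effect, 100 complete control).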

[2] = tested on: blackgrass (Alopecurus myosuroides); test: as above; details: 10 days
In short: as §1

corn (Zea mays) [3] = test: as above; details: 10 days
In short: as §1

[4] = tested on: green foxtail (Setaria viridis); test: as above; details: 10 days
In short: as §1

kochia (Bassia scoparia) [5] = test: as above; details: 10 days
In short: as §1

[6] = tested on: oat, wild (wild oat, Avena fatua); test: as above; details: 10 days
In short: as §1

[7] = tested on: palmer (palmer amaranth, palmer pigweed, Amaranthus palmeri); test: as above; details: 10 days
In short: as §1

[8] = tested on: ragweed (common ragweed, Ambrosia artemisiifolia); test: as above; details: 10 days
In short: as §1

[9] = tested on: ryegrass, Italian (italian ryegrass, Lolium multiflorum); test: as above; details: 10 days
In short: as §1

soybean (Glycine max) [10] = test: as above; details: 10 days
In short: as §1

[11] = tested on: wheat (Triticum aestivum); test: as above; details: 10 days
In short: as §1

[12] = tested on: barnyardgrass (Echinochloa crus-galli); test: Test A postemergence application, visual injury rating 0-100
In short: as §1

[13] = tested on: blackgrass (Alopecurus myosuroides); test: as above
In short: as §1

corn (Zea mays) [14] = test: as above
In short: as §1

[15] = tested on: green foxtail (Setaria viridis); test: as above
In short: as §1

[16] = tested on: horseweed (Erigeron canadensis); test: as above
In short: as §1

kochia (Bassia scoparia) [17] = test: as above
In short: as §1

[18] = tested on: oat, wild (wild oat, Avena fatua); test: as above
In short: as §1

[19] = tested on: palmer (palmer amaranth, palmer pigweed, Amaranthus palmeri); test: as above
In short: as §1

[20] = tested on: ragweed (common ragweed, Ambrosia artemisiifolia); test: as above
In short: as §1

[21] = tested on: ryegrass, Italian (italian ryegrass, Lolium multiflorum); test: as above
In short: as §1

soybean (Glycine max) [22] = test: as above
In short: as §1

[23] = tested on: wheat (Triticum aestivum); test: as above
In short: as §1

[24] = tested on: barnyardgrass (Echinochloa crusgalli); test: Test B flooded paddy test, visual plant response rating 0-100; details: 250 g ai/ha, Flood, applied to paddy water, evaluated after 13 days
In short: (§2)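 Treatment occurs at the 2-leaf stage by adding compound to floodwater standing 3 cm above the soil, a level kept for the whole test. Plants stay in the greenhouse 13 days before visual comparison with controls.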

[25] = tested on: ducksalad (Heteranthera limosa); test: as above; details: 250 g ai/ha, Flood, applied to paddy water, evaluated after 13 days
In short: as §2

rice (Oryza sativa) = test: as above; details: 250 g ai/ha, Flood, applied to paddy water, evaluated after 13 days
In short: as §2

[26] = tested on: sedge, umbrella (small-flower umbrella sedge, Cyperus difformis); test: as above; details: 250 g ai/ha, Flood, applied to paddy water, evaluated after 13 days
In short: as §2

[27] = 62 g ai/ha, 0 = no effect, 100 = complete control
[28] = 62 g ai/ha, postemergence, 10 days, 0 = no effect, 100 = complete control
[29] = Postemergence, 16 g ai/ha, greenhouse 10 days, 0 no effect, 100 complete control

CCOC(=O)C1=CCC(NC(=O)C2(C)CN(c3cc(F)cc(F)c3)C(=O)O2)C1 (centres unmarked) [Compound 112]
70: Kochia plant response rating (0-100) (kochia (Bassia scoparia) [5]; [27]) | Wheat plant response rating (0-100) [11, 27] | Blackgrass plant response rating (0 to 100 scale) [13, 29]
95: Plant response rating, Ducksalad (0 to 100 scale, 0 is no effect and 100 is complete control) [25] | Plant response rating, Sedge, Umbrella (0 to 100 scale, 0 is no effect and 100 is complete control) [26]
10: Soybean plant response rating (soybean (Glycine max) [10]; 16 g ai/ha, 0 to 100 scale)
90: Foxtail, Green plant response rating (0-100) [15, 28] | Foxtail, Green plant response rating (0 to 100 scale) [15, 29] | Kochia plant response rating (0-100) (kochia (Bassia scoparia) [17]; [28]) | Oat, Wild plant response rating (0-100) [18, 28] | Ryegrass, Italian plant response rating (0-100) [21, 28] | Wheat plant response rating (0-100) [23, 28] | Wheat plant response rating (0 to 100 scale) [23, 29]
0: Blackgrass plant response rating ([2]; 16 g ai/ha, 0 to 100 scale) | Kochia plant response rating (kochia (Bassia scoparia) [5]; 16 g ai/ha, 0 to 100 scale) | Oat, Wild plant response rating ([6]; 16 g ai/ha, 0 to 100 scale) | Oat, Wild plant response rating (0-100) [6, 27] | Pigweed, Palmer plant response rating ([7]; 16 g ai/ha, 0 to 100 scale) | Ragweed plant response rating ([8]; 16 g ai/ha, 0 to 100 scale) | Ragweed plant response rating (0-100) [8, 27] | Soybean plant response rating (0-100) (soybean (Glycine max) [10]; [27]) | Horseweed plant response rating (0-100) [16, 28] | Horseweed plant response rating (0 to 100 scale) [16, 29]
50: Oat, Wild plant response rating (0 to 100 scale) [18, 29] | Ragweed plant response rating (0-100) [20, 28] | Ragweed plant response rating (0 to 100 scale) [20, 29]
40: Wheat plant response rating ([11]; 16 g ai/ha, 0 to 100 scale)
20: Barnyardgrass plant response rating ([1]; 16 g ai/ha, 0 to 100 scale) | Corn plant response rating (corn (Zea mays) [3]; 16 g ai/ha, 0 to 100 scale) | Foxtail, Green plant response rating ([4]; 16 g ai/ha, 0 to 100 scale)
85: Plant response rating, Rice (0 to 100 scale, 0 is no effect and 100 is complete control) (rice (Oryza sativa))
80: Ryegrass, Italian plant response rating (0-100) [9, 27] | Blackgrass plant response rating (0-100) [13, 28] | Pigweed, Palmer plant response rating (0-100) [19, 28] | Soybean plant response rating (0-100) (soybean (Glycine max) [22]; [28]) | Plant response rating, Barnyardgrass (0 to 100 scale, 0 is no effect and 100 is complete control) [24]
60: Corn plant response rating (0-100) (corn (Zea mays) [3]; [27]) | Ryegrass, Italian plant response rating ([9]; 16 g ai/ha, 0 to 100 scale) | Kochia plant response rating (0 to 100 scale) (kochia (Bassia scoparia) [17]; [29]) | Ryegrass, Italian plant response rating (0 to 100 scale) [21, 29] | Soybean plant response rating (0 to 100 scale) (soybean (Glycine max) [22]; [29])
100: Barnyardgrass plant response rating (0-100) [1, 27] | Foxtail, Green plant response rating (0-100) [4, 27] | Pigweed, Palmer plant response rating (0-100) [7, 27] | Barnyardgrass plant response rating (0-100) [12, 28] | Barnyardgrass plant response rating (0 to 100 scale) [12, 29] | Corn plant response rating (0-100) (corn (Zea mays) [14]; [28]) | Corn plant response rating (0 to 100 scale) (corn (Zea mays) [14]; [29])
30: Blackgrass plant response rating (0-100) [2, 27] | Pigweed, Palmer plant response rating (0 to 100 scale) [19, 29]
